According to publication PMC11631053, “A receptor-based assay to study the sweet and bitter tastes of sweeteners and binary sweet blends: the SWEET project” (Chemical Senses, 2024):
Several values for one entry are separate records, joined by “and”; a condition that tells them apart may be missing. Identical values can stand only once.

Key:
[1] = biological target: T1, TAS2R8 (Homo sapiens, UniProt Q9NYW2); assay: Calcium mobilization assay, HEK293T-Gα16gust44 cells expressing TAS2R8; settings: maximal concentration tested: sucralose 100 mM, neotame 30 µM, Ace-K 300 mM, RebA 4 mM, RebM 4 mM, mogroside V 5 mM, erythritol 200 mM, D-allulose 500 mM, thaumatin 100 mM
T1 sequence (Q9NYW2 1-309): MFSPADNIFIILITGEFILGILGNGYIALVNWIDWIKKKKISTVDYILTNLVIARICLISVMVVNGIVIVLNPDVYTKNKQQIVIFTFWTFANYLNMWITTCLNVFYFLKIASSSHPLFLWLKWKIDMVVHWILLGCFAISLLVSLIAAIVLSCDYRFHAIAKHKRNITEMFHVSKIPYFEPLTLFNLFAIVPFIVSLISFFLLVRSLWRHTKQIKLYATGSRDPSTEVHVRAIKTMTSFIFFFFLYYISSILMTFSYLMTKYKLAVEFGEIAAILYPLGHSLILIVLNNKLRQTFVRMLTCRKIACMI
Description: (§1) Different concentration ranges were tested depending on the injected sweet compound. […] All of the concentration-receptor combinations were measured in triplicate, and each experiment was repeated at least 3 times. The Ca^2+ change was expressed as a fractional change in fluorescent light intensity: ΔF/F = (F − F0)/F0, where F was the fluorescent light intensity at each point, and F0 was the value of fluorescent light emitted prior to stimulus application. To calculate dose–response relationships, the changes in fluorescence upon stimulus application were averaged, mock-subtracted and baseline-corrected. The resulting obtained dose–response data were adjusted by using a 4-parameter logistic equation. The half-maximal effective concentration (EC50) was calculated by using SigmaPlot software (Systat Software, San Jose, CA, USA) as described in supplemental Supplementary Figs. S1, S2, and S3.

[2] = biological target: T2, TAS2R45 (Homo sapiens, UniProt P59539); assay: Calcium mobilization assay, HEK293T-Gα16gust44 cells expressing TAS2R45; settings: maximal concentration tested: sucralose 100 mM, neotame 30 µM, Ace-K 300 mM, RebA 4 mM, RebM 4 mM, mogroside V 5 mM, erythritol 200 mM, D-allulose 500 mM, thaumatin 100 mM
T2 sequence (P59539 1-299): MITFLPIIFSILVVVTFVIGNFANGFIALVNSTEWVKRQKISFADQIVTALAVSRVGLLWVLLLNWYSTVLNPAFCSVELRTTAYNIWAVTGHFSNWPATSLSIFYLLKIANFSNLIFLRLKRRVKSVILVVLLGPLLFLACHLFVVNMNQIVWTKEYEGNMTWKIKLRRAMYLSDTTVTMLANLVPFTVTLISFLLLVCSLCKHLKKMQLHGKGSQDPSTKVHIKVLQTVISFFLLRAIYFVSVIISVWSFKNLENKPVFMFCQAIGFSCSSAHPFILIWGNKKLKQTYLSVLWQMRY
Description: as §1

[3] = biological target: TAS2R40 (Homo sapiens, UniProt P59535); assay: Calcium mobilization assay, HEK293T-Gα16gust44 cells expressing TAS2R40; settings: maximal concentration tested: sucralose 100 mM, neotame 30 µM, Ace-K 300 mM, RebA 4 mM, RebM 4 mM, mogroside V 5 mM, erythritol 200 mM, D-allulose 500 mM, thaumatin 100 mM
Description: (§2) Different concentration ranges were tested depending on the injected sweet compound. […] All of the concentration-receptor combinations were measured in triplicate, and each experiment was repeated at least 3 times. The Ca^2+ change was expressed as a fractional change in fluorescent light intensity: ΔF/F = (F − F0)/F0, where F was the fluorescent light intensity at each point, and F0 was the value of fluorescent light emitted prior to stimulus application. To calculate dose–response relationships, the changes in fluorescence upon stimulus application were averaged, mock-subtracted and baseline-corrected. The resulting obtained dose–response data were adjusted by using a 4-parameter logistic equation.

[4] = biological target: T3, TAS2R60 (Homo sapiens, UniProt P59551); assay: Calcium mobilization assay, HEK293T-Gα16gust44 cells expressing TAS2R60; settings: maximal concentration tested: sucralose 100 mM, neotame 30 µM, Ace-K 300 mM, RebA 4 mM, RebM 4 mM, mogroside V 5 mM, erythritol 200 mM, D-allulose 500 mM, thaumatin 100 mM
T3 sequence (P59551 1-318): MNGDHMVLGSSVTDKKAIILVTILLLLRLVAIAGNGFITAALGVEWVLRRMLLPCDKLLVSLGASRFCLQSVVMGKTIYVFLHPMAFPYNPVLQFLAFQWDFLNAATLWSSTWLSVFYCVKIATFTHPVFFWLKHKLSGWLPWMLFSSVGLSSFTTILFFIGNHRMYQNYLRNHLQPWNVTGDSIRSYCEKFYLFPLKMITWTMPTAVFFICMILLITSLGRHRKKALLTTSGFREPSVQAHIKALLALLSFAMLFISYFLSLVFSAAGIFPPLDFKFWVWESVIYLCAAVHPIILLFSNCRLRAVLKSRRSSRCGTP
Description: as §1

[5] = biological target: T4, TAS2R46 (Homo sapiens, UniProt P59540); assay: Calcium mobilization assay, HEK293T-Gα16gust44 cells expressing TAS2R46; settings: for Response of TAS2R46: maximal concentration tested: sucralose 100 mM, neotame 30 µM, Ace-K 300 mM, RebA 4 mM, RebM 4 mM, mogroside V 5 mM, erythritol 200 mM, D-allulose 500 mM, thaumatin 100 mM
T4 sequence (P59540 1-309): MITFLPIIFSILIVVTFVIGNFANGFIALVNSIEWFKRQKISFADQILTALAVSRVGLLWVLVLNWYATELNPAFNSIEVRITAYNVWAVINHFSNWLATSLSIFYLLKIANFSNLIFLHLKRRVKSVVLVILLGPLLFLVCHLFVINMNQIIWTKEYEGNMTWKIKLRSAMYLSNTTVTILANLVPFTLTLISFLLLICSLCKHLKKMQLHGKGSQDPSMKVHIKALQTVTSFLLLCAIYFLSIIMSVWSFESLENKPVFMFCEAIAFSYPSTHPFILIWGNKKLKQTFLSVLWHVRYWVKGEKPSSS
Description: as §2

[6] = biological target: T5, TAS2R41 (Homo sapiens, UniProt P59536); assay: Calcium mobilization assay, HEK293T-Gα16gust44 cells expressing TAS2R41; settings: maximal concentration tested: sucralose 100 mM, neotame 30 µM, Ace-K 300 mM, RebA 4 mM, RebM 4 mM, mogroside V 5 mM, erythritol 200 mM, D-allulose 500 mM, thaumatin 100 mM
T5 sequence (P59536 1-307): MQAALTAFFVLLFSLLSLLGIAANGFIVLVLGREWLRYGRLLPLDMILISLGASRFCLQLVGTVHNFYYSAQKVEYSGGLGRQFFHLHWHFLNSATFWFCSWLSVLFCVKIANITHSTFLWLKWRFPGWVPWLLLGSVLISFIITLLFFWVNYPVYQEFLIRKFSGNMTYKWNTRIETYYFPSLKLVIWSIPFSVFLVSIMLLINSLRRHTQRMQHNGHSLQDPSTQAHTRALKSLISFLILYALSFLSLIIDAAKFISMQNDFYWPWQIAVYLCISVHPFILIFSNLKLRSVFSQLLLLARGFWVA
Description: as §1

[7] = biological target: T6, TAS2R14 (Homo sapiens, UniProt Q9NYV8); assay: Calcium mobilization assay, HEK293T-Gα16gust44 cells expressing TAS2R14; settings: maximal concentration tested: sucralose 100 mM, neotame 30 µM, Ace-K 300 mM, RebA 4 mM, RebM 4 mM, mogroside V 5 mM, erythritol 200 mM, D-allulose 500 mM, thaumatin 100 mM
T6 sequence (Q9NYV8 1-317): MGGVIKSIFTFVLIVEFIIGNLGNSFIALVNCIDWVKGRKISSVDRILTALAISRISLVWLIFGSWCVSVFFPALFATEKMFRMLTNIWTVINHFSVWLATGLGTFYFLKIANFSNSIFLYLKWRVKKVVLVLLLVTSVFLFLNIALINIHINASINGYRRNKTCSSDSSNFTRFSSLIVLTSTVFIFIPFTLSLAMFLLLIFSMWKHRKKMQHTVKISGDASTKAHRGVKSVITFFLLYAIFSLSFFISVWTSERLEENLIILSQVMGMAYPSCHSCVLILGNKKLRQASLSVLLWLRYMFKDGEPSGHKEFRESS
Description: as §2

[8] = biological target: T7, TAS2R5 (Homo sapiens, UniProt Q9NYW4); assay: Calcium mobilization assay, HEK293T-Gα16gust44 cells expressing TAS2R5; settings: maximal concentration tested: sucralose 100 mM, neotame 30 µM, Ace-K 300 mM, RebA 4 mM, RebM 4 mM, mogroside V 5 mM, erythritol 200 mM, D-allulose 500 mM, thaumatin 100 mM
T7 sequence (Q9NYW4 1-299): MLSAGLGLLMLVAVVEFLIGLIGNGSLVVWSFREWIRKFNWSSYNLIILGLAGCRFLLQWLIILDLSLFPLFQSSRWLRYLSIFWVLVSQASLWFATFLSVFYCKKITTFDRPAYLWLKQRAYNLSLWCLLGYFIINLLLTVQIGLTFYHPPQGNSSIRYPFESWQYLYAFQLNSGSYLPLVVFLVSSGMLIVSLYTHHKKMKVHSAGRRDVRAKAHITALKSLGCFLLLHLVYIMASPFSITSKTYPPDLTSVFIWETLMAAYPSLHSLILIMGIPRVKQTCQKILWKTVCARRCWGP
Description: as §1

[9] = tested on: 25 human TAS2Rs; assay: Screen of the 25 human TAS2Rs, calcium mobilization in HEK293T-Gα16gust44 cells; type: cell-based; settings: for number of TAS2Rs activated: of the 25 human TAS2Rs; for activation of any TAS2Rs: at the maximal tested concentration (Table 4)
Description: The activation of the 25 human TAS2Rs by the 9 selected sweeteners (excluding sucrose) was examined by using HEK293T-Gα16gust44 cells. Cellular responses were measured after cell stimulation with various concentrations of the sweeteners.

TAS2R40, sequence (P59535 whole entry): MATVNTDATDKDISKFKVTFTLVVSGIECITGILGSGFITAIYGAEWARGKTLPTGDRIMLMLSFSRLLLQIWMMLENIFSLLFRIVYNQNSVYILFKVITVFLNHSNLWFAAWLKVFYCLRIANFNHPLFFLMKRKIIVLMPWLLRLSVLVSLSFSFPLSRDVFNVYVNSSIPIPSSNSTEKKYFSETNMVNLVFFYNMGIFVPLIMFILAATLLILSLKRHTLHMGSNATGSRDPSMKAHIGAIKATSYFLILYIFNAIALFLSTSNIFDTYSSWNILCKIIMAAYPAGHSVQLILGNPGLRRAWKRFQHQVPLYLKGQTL

Molecule | Response of TAS2R8 [1] | Response of TAS2R45 [2] | Response of TAS2R40 [3] | Response of TAS2R60 [4] | Response of TAS2R46 [5] | Response of TAS2R41 [6] | Response of TAS2R14 [7] | Response of TAS2R5 [8] | number of TAS2Rs activated [9] | activation of any TAS2Rs [9] | EC50 ([5]; TAS2R46 EC50)
CC1=CC(=O)NS(=O)(=O)O1 [Ace-K, acesulfame-K] | − | − | − | − | − | − | − | − |  |  | 
O=C(CO)[C@H](O)[C@H](O)[C@H](O)CO [D-allulose] | − | − | − | − | − | − | + | − | 7 |  | 
OC[C@@H](O)[C@@H](O)CO [Erythritol, erythritol] | − | − | − | − | − | − | − | − |  | Neither neotame, RebM, erythritol, or thaumatin activated any TAS2Rs | 
C[C@H](CC[C@@H](O[C@@H]1O[C@H](CO[C@@H]2O[C@H](CO)[C@@H](O)[C@H](O)[C@H]2O)[C@@H](O)[C@H](O)[C@H]1O[C@@H]1O[C@H](CO)[C@@H](O)[C@H](O)[C@H]1O)C(C)(C)O)[C@H]1CC[C@@]2(C)[C@@H]3CC=C4[C@@H](CC[C@H](O[C@@H]5O[C@H](CO[C@@H]6O[C@H](CO)[C@@H](O)[C@H](O)[C@H]6O)[C@@H](O)[C@H](O)[C@H]5O)C4(C)C)[C@]3(C)[C@H](O)C[C@]12C [Mogroside V, mogroside V] | − | − | − | − | − | − | − | − | 2 |  | 
COC(=O)[C@H](Cc1ccccc1)NC(=O)[C@H](CC(=O)O)NCCC(C)(C)C [Neotame] | − | − | − | − | − | − | − | − |  | Neither neotame, RebM, erythritol, or thaumatin activated any TAS2Rs | 
C=C1C[C@@]23CC[C@H]4[C@@](C)(CCC[C@@]4(C)C(=O)O[C@@H]4O[C@H](CO)[C@@H](O)[C@H](O[C@@H]5O[C@H](CO)[C@@H](O)[C@H](O)[C@H]5O)[C@H]4O[C@@H]4O[C@H](CO)[C@@H](O)[C@H](O)[C@H]4O)[C@@H]2CC[C@]1(O[C@@H]1O[C@H](CO)[C@@H](O)[C@H](O[C@@H]2O[C@H](CO)[C@@H](O)[C@H](O)[C@H]2O)[C@H]1O[C@@H]1O[C@H](CO)[C@@H](O)[C@H](O)[C@H]1O)C3 [RebM, Rebaudioside M] | − | − | − | − | − | − | − | − |  | Neither neotame, RebM, erythritol, or thaumatin activated any TAS2Rs | 
OC[C@H]1O[C@H](O[C@]2(CCl)O[C@H](CCl)[C@@H](O)[C@@H]2O)[C@H](O)[C@@H](O)[C@H]1Cl [Sucralose, sucralose] | − | − | − | − | #^a | − | − | − | 3 |  | 3 mM and ≥ 3 mM
thaumatin | − | − | − | − | − | − | − | − |  | Neither neotame, RebM, erythritol, or thaumatin activated any TAS2Rs | 
